ChEMBL document CHEMBL1201862, “PubChem BioAssay data set” (2004)
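All cell lines were grown in 96-well plates and treated with compound for 48 hours. Here, GI50 denotes the concentration required for 50% inhibition of growth.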 Active and inactive are the calls of the source. Cut-off read from the data, not from the text of the source: active = GI50 up to about 1.1 µM and inactive = higher.

Tests used:
Assay in all cases: NCI anticancer screen, dose series, 48 h
OVCAR-3 = test system: OVCAR-3
M19-MEL = test system: M19-MEL
MDA-MB-435 = test system: MDA-MB-435
MDA-N = test system: MDA-N
UACC-257 = test system: UACC-257
NCI-H226 = test system: NCI-H226
SF-268 = test system: SF-268
SW-620 = test system: SW-620
NCI-H23 = test system: NCI-H23
SNB-19 = test system: SNB-19
RPMI-8226 = test system: RPMI-8226
MOLT-4 = test system: MOLT-4
OVCAR-4 = test system: OVCAR-4
ACHN = test system: ACHN
SK-MEL-28 = test system: SK-MEL-28
SK-MEL-5 = test system: SK-MEL-5
HCT-116 = test system: HCT-116
COLO 205 = test system: COLO 205
UO-31 = test system: UO-31
HCC 2998 = test system: HCC 2998

SMILES	GI50 (OVCAR-3)	GI50 (M19-MEL)	GI50 (MDA-MB-435)	GI50 (MDA-N)	GI50 (UACC-257)	GI50 (NCI-H226)	GI50 (SF-268)	GI50 (SW-620)	GI50 (NCI-H23)	GI50 (SNB-19)	GI50 (RPMI-8226)	GI50 (MOLT-4)	GI50 (OVCAR-4)	GI50 (ACHN)	GI50 (SK-MEL-28)	GI50 (SK-MEL-5)	GI50 (HCT-116)	GI50 (COLO 205)	GI50 (UO-31)	GI50 (HCC 2998)
CCN(CCCl)CCCCNc1c2ccccc2nc2ccc(OC)cc12	1.15 µM (inactive)	235 nM (active)	427 nM (active)	676 nM (active)	2.67 µM (inactive)	102 nM (active)	171 nM (active)	66.4 nM (active)	276 nM (active)	918 nM (active)	53.5 nM (active)	< 10 nM (active)	700 nM (active)	178 nM (active)	1.58 µM (inactive)	373 nM (active)	54.2 nM (active)	258 nM (active)	1.11 µM (active)	
COC1=C(C)C(=O)C2=C(C1=O)C1C3CC4=C(C(=O)C(OC)=C(C)C4=O)C(CNC(=O)C(C)=O)N3C(C#N)C(C2)N1C (stereo not given)	0.00419 µM (active)	6.34 nM (active)	1.6 nM (active)		0.00464 µM (active)	17.7 nM (active)	14 nM (active)	2.46 nM (active)	3.85 nM (active)	8.04 nM (active)	1.4 nM (active)	8.38 nM (active)	40.5 nM (active)	20.9 nM (active)	0.00511 µM (active)	3.43 nM (active)	7.11 nM (active)	2.74 nM (active)		0.00629 µM (active)
C=C(c1ccccc1)C1(O)CCCCC1N (stereo not given)	> 89.5 µM (inactive)	> 100000 nM (inactive)			> 100 µM (inactive)	> 100000 nM (inactive)	> 100000 nM (inactive)	> 100000 nM (inactive)	> 100000 nM (inactive)	> 100000 nM (inactive)	50700 nM (inactive)	31800 nM (inactive)	> 100000 nM (inactive)	> 100000 nM (inactive)	> 100 µM (inactive)	> 100000 nM (inactive)	> 100000 nM (inactive)	> 100000 nM (inactive)	> 100 µM (inactive)	> 100 µM (inactive)
